Reference: patent publication US20130184280A1, “SUBSTITUTED THIAZOLES AS VEGFR2 KINASE INHIBITORS” (TELIK, INC., priority 2011, published 2013)

What was measured:
[1] = In Vitro Cytotoxicity Assay HL60 (CellTiter-Glo); assay type: cell-based; details: human, HL60 promyelocytic leukemia cells; HL 60 cells, cultured three days
Protocol: (§1) The cell lines HL60 (human promyelocytic leukemia) and HCT116 (human colon carcinoma) were obtained from the American Type Culture Collection, Manassas, Va., U.S.A. All products were used in accordance with manufacturer's directions. The cytotoxicity assays were conducted in triplicate, in each case with solvent control.
(§2) Log-phase cells were trypsinized, collected by centrifugation, and resuspended in a small volume of fresh medium, and the density of viable cells was determined following Trypan Blue staining Cells were diluted in fresh media, the test compounds (concentrations between 0.1 μM and 200 μM, dissolved in DMSO, 50 μL) added immediately after dilution to achieve a final DMSO concentration of 0.5%, then the suspensions added at 150 μL/well to 96-well plates, and incubated overnight to allow attachment in the case of adherent cells. The cells were cultured for three days (about three doubling times). The cells were then collected by centrifugation, and 100 μL of the culture supernatant was replaced by the CellTiter-Glo reagent. After incubation for 15 minutes at room temperature, the plate was read with a luminometer. […] The table gives cytotoxicity IC50s in μm.

[2] = tested on: HCT116 (human colon carcinoma); experiment: In Vivo HCT116 Xenograft Model; details: athymic nu/nu mice
[3] = In Vitro Cytotoxicity Assay HCT116 (CellTiter-Glo); assay type: cell-based; details: human, HCT116 colon carcinoma cells, cultured three days
Protocol: as §1, §2

VEGFR2 kinase = target: T1, VEGFR2 kinase (Homo sapiens, UniProt P35968); experiment: In Vitro VEGFR2 Kinase Assay; assay type: biochemical; details: FP; CSKtide substrate, 60 minutes at room temperature
T1 construct: purchased InVitrogen
Protocol: In Vitro VEGFR2 Kinase Assay
50 ng/well VEGFR2 kinase (from InVitrogen) was mixed in buffer (14.5 μL/well). To this were added, 0.5 μL of the compound of this invention at a concentration of 2.5% in DMSO. After incubatiuon for 5 minutes at room temperature, 5 μL of substrate (CSKtide, 400 nM) and 8 μL ATP were added. The mixture was incubated for 60 minutes at room temperature and 60 uL of binding reagent (beads) was added. After incubation overnight at room temperature, the plate was read with a LJL plate reader.

[4] = 30 mg/Kg intraperitoneally once/day on days 1-5 and 8-12, measured 2 days after last treatment

T1 sequence (P35968 20-1356): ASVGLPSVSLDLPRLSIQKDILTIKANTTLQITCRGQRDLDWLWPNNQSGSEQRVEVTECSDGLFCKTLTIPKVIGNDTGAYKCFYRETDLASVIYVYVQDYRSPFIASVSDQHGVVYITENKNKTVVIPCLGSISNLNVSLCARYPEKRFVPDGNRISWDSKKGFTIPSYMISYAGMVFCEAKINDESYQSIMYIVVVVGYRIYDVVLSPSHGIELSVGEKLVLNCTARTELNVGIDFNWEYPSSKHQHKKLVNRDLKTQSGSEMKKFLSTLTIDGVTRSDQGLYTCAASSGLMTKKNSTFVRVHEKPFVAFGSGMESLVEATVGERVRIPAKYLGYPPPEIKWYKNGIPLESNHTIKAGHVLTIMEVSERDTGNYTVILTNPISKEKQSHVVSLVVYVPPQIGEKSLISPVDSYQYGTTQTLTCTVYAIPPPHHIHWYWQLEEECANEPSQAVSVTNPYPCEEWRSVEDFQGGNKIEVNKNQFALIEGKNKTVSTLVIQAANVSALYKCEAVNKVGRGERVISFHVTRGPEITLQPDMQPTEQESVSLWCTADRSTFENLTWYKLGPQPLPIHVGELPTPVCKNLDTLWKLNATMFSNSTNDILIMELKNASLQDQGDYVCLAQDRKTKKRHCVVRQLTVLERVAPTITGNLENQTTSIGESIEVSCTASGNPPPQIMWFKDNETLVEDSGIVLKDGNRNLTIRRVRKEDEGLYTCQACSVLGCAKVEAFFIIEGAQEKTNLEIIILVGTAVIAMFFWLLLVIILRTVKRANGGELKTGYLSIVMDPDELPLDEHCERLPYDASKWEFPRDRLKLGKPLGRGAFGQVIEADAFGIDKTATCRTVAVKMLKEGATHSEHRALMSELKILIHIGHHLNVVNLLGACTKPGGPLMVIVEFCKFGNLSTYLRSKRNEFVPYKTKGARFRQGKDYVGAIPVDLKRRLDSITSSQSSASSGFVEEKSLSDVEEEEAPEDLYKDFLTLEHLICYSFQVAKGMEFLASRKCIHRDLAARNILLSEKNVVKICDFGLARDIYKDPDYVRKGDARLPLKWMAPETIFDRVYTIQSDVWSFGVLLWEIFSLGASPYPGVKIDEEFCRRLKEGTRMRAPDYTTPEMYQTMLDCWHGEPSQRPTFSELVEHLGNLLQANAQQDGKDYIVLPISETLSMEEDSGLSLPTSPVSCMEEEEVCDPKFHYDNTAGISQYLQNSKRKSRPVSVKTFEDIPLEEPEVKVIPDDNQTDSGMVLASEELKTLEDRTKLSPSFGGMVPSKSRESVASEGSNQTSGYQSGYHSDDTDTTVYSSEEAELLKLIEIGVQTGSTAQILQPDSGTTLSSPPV

Compound | IC50 at 3 days [1] [nM] | Tumor growth inhibition [2, 4] | IC50 at 3 days [3] [nM] | IC50 (VEGFR2 kinase) [nM] | Tumor growth inhibition ([2]; administered orally)
Cc1cccc(NC(=O)Nc2cccc(-c3csc(-c4cncnc4N)n3)c2)c1 [Compound 17, 1-(3-(2-(4-aminopyrimidin-5-yl)thiazol-4-yl)phenyl)-3-m-tolylurea] | 300 | showed inhibition of tumor growth compared to vehicle | 1000 | 10 | –
Nc1ncncc1-c1nc(-c2cccc(NC(=O)c3ccccc3)c2)cs1 [Compound 3] | 3000 | showed inhibition of tumor growth compared to vehicle | 20000 | 20 | –
Nc1ncncc1-c1nc(-c2cccc(NC(=O)Nc3cccc(CN4CCOCC4)c3)c2)cs1 [Compound 46] | 700 | showed inhibition of tumor growth compared to vehicle | 8000 | 20 | showed inhibition of tumor growth when administered orally
